Data from ChEMBL document CHEMBL1201862, “PubChem BioAssay data set” (2004).
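How tested: cells in 96-well plates exposed to compound for 48 hours at five concentrations. Here, GI50 denotes the concentration required for 50% inhibition of growth.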 Calls of active or inactive are those of the source. Cut-off read from the data, not from the text of the source: active = GI50 up to about 1.1 µM and inactive = higher.

Legend:
Experiment in all cases: NCI tumour cell line growth inhibition, 48 h
M14 = system: M14
OVCAR-5 = system: OVCAR-5
HCT-116 = system: HCT-116
SN12C = system: SN12C
HL-60 = system: HL-60
HCC 2998 = system: HCC 2998
SK-MEL-5 = system: SK-MEL-5
UACC-62 = system: UACC-62
OVCAR-3 = system: OVCAR-3
SF-539 = system: SF-539
K562 = system: K562
KM12 = system: KM12
UO-31 = system: UO-31
UACC-257 = system: UACC-257
IGROV-1 = system: IGROV-1
HOP-62 = system: HOP-62
CAKI-1 = system: CAKI-1
ACHN = system: ACHN
SNB-75 = system: SNB-75

Measured: GI50

CC(=O)Oc1ccc(Nn2c3ccccc3c3ccccc32)c(C)c1
inactive: M14 29 µM | OVCAR-5 > 100 µM | HCT-116 35.7 µM | SN12C 41.5 µM | HL-60 22.3 µM | HCC 2998 27.7 µM | SK-MEL-5 39.2 µM | UACC-62 51.5 µM | OVCAR-3 42.6 µM | SF-539 > 10 µM | K562 32.1 µM | KM12 36.6 µM | UO-31 39.1 µM | UACC-257 33.4 µM | IGROV-1 23.6 µM | HOP-62 36.1 µM

CCCCCCCCCCCC(=O)C1=C(O)CCC(O)C1=O (stereo unspecified)
inactive: OVCAR-5 27.7 µM | HCT-116 21.3 µM | SN12C 21.8 µM | HL-60 13.5 µM | HCC 2998 22 µM | SK-MEL-5 10 µM | UACC-62 10.8 µM | OVCAR-3 10.8 µM | SF-539 19.1 µM | CAKI-1 23 µM | ACHN 19.4 µM | K562 7.6 µM | KM12 17.9 µM | SNB-75 21.6 µM | UO-31 19.7 µM | UACC-257 14.7 µM | IGROV-1 19.9 µM | HOP-62 15.2 µM

O=C(O)CCCCCCC[C@H]1S[C@H]1CCCCCCO
inactive: M14 > 100 µM | OVCAR-5 > 100 µM | HCT-116 > 100 µM | HL-60 > 100 µM | HCC 2998 > 100 µM | SK-MEL-5 > 100 µM | UACC-62 > 100 µM | OVCAR-3 > 100 µM | SF-539 > 100 µM | CAKI-1 > 100 µM | K562 > 100 µM | KM12 > 100 µM | UO-31 > 100 µM | IGROV-1 > 100 µM | HOP-62 > 100 µM

C/C(=N/NC(=O)c1ccccc1S(N)(=O)=O)C(CN1CCCCC1)C(C1=C(O)C2C=CC=CC2OC1=O)c1ccccc1 (stereo unspecified)
inactive: M14 78.3 µM | OVCAR-5 > 100 µM | HCT-116 > 100 µM | SN12C 78.7 µM | HL-60 23.4 µM | SK-MEL-5 56.9 µM | UACC-62 82.6 µM | OVCAR-3 41.6 µM | SF-539 > 100 µM | CAKI-1 > 100 µM | ACHN 61.7 µM | K562 43.6 µM | KM12 97.3 µM | SNB-75 > 100 µM | UO-31 74.5 µM | UACC-257 95.7 µM | IGROV-1 > 100 µM | HOP-62 > 100 µM

CC(=O)C1C(=O)C(=O)N(c2ccc(Cl)cc2C)C1=O (stereo unspecified)
inactive: M14 > 100 µM | OVCAR-5 > 100 µM | HCT-116 > 100 µM | SN12C > 100 µM | HL-60 > 100 µM | HCC 2998 > 100 µM | SK-MEL-5 > 100 µM | UACC-62 > 100 µM | SF-539 > 100 µM | ACHN > 100 µM | K562 > 100 µM | KM12 > 100 µM | UO-31 > 100 µM | UACC-257 > 100 µM | IGROV-1 > 100 µM | HOP-62 > 100 µM

O=C1NC2CCCCCC2C12CCCCC2 (stereo unspecified)
inactive: M14 > 100 µM | OVCAR-5 > 100 µM | HCT-116 > 100 µM | SN12C > 100 µM | HL-60 > 100 µM | HCC 2998 > 100 µM | UACC-62 > 100 µM | OVCAR-3 > 100 µM | SF-539 > 100 µM | ACHN > 100 µM | K562 > 100 µM | KM12 > 100 µM | SNB-75 > 100 µM | UO-31 > 100 µM | UACC-257 > 100 µM | IGROV-1 > 100 µM | HOP-62 > 100 µM

Cn1c2ccccc2c2ccc3c(c21)C(=O)C(c1ccccc1)=CC3=O
inactive: M14 39.4 µM | OVCAR-5 > 100 µM | HCT-116 14.5 µM | SN12C 17.3 µM | HL-60 14.4 µM | HCC 2998 24.5 µM | SK-MEL-5 22.8 µM | OVCAR-3 23.7 µM | SF-539 24.2 µM | CAKI-1 49.9 µM | ACHN 54.2 µM | K562 4.75 µM | KM12 32.2 µM | SNB-75 9.31 µM | UO-31 31.1 µM | UACC-257 32.7 µM | IGROV-1 13.4 µM | HOP-62 13.4 µM

COc1ccc2c(c1)[n+]([O-])c(-c1cccc(Cl)c1)c(N)[n+]2[O-]
inactive: OVCAR-5 33.1 µM | HCT-116 38.5 µM | SN12C 48.4 µM | HL-60 29 µM | SK-MEL-5 19.2 µM | OVCAR-3 36.2 µM | SF-539 31.3 µM | CAKI-1 62.4 µM | ACHN 57.3 µM | K562 45.1 µM | KM12 48.6 µM | UO-31 89.3 µM | UACC-257 21.1 µM | IGROV-1 46.8 µM | HOP-62 > 100 µM

N#C/C(=C/c1ccco1)C(=O)c1ccccc1
inactive: M14 > 100 µM | OVCAR-5 > 100 µM | HCT-116 > 100 µM | SN12C > 100 µM | HL-60 > 100 µM | HCC 2998 > 100 µM | SK-MEL-5 > 100 µM | UACC-62 > 100 µM | SF-539 > 100 µM | CAKI-1 > 100 µM | ACHN > 100 µM | K562 > 100 µM | KM12 > 100 µM | SNB-75 > 100 µM | UO-31 > 100 µM | UACC-257 > 100 µM | IGROV-1 > 100 µM

Cc1ccc(S(=O)(=O)N/N=C(/c2nc3ccc([N+](=O)[O-])cc3nc2O)C(O)c2ccc(C(O)/C(=N\NS(=O)(=O)c3ccc(C)cc3)c3nc4ccc([N+](=O)[O-])cc4nc3O)cc2)cc1 (stereo unspecified)
inactive: M14 20.8 µM | OVCAR-5 > 100 µM | HCT-116 54.2 µM | HL-60 7.82 µM | HCC 2998 28 µM | SK-MEL-5 28.1 µM | UACC-62 68.4 µM | OVCAR-3 61.2 µM | SF-539 42.9 µM | ACHN 28.6 µM | K562 13 µM | KM12 19.3 µM | SNB-75 > 100 µM | UO-31 38.4 µM | UACC-257 14.8 µM | IGROV-1 > 100 µM | HOP-62 43.1 µM

COc1ccc(Br)c(CN2CCc3ccccc32)c1OS(=O)(=O)c1ccc(C)cc1
inactive: M14 13.9 µM | OVCAR-5 > 100 µM | SN12C 76 µM | HL-60 5.15 µM | HCC 2998 6.31 µM | OVCAR-3 5.07 µM | SF-539 15.6 µM | ACHN 14.7 µM | K562 4.75 µM | KM12 7.66 µM | SNB-75 19.2 µM | UO-31 51.2 µM | UACC-257 48.2 µM

CC1C(/C=C/c2ccoc2)ON2CCCC12 (stereo unspecified)
inactive: M14 > 10 µM | OVCAR-5 > 100 µM | SN12C > 100 µM | HL-60 > 100 µM | HCC 2998 > 100 µM | SF-539 > 100 µM | CAKI-1 > 100 µM | ACHN > 100 µM | SNB-75 > 100 µM | UO-31 > 100 µM | UACC-257 > 100 µM | HOP-62 > 10 µM

CCN(CC)CCNC(=O)c1cc2cc(NC(=O)c3cc4cc(NC(=O)c5cc6cc(N)ccc6[nH]5)ccc4[nH]3)ccc2[nH]1
inactive: M14 > 100 µM | OVCAR-5 > 100 µM | SN12C > 100 µM | HCC 2998 > 100 µM | SK-MEL-5 > 100 µM | UACC-62 > 100 µM | OVCAR-3 > 100 µM | CAKI-1 > 100 µM | ACHN > 100 µM | K562 > 100 µM | KM12 > 100 µM | SNB-75 > 100 µM | UO-31 > 100 µM | UACC-257 > 100 µM | IGROV-1 > 100 µM | HOP-62 > 100 µM

COC(CC1(/C=C/O[Si](C(C)C)(C(C)C)C(C)C)C(=O)N(COCC[Si](C)(C)C)c2ccccc21)OC (stereo unspecified)
inactive: M14 27.2 µM | OVCAR-5 37.4 µM | HCT-116 16.1 µM | SN12C 45.1 µM | HCC 2998 27.9 µM | SK-MEL-5 23.1 µM | UACC-62 18.8 µM | OVCAR-3 13.1 µM | SF-539 15.1 µM | CAKI-1 46.3 µM | ACHN 26.6 µM | K562 > 100 µM | KM12 36.1 µM | SNB-75 81.8 µM | UO-31 76 µM | UACC-257 25.5 µM | IGROV-1 24.5 µM | HOP-62 66.8 µM

COC(C(O)c1ccc2c(c1)OCO2)P(=O)(c1ccccc1)c1ccccc1 (stereo unspecified)
inactive: M14 > 100 µM | OVCAR-5 > 100 µM | HCT-116 > 100 µM | SN12C 62.8 µM | HL-60 > 100 µM | SK-MEL-5 > 100 µM | UACC-62 32.4 µM | OVCAR-3 15.1 µM | SF-539 > 100 µM | CAKI-1 33.6 µM | ACHN > 100 µM | K562 60.3 µM | KM12 > 100 µM | SNB-75 35.9 µM | UO-31 > 100 µM | UACC-257 > 100 µM | IGROV-1 > 100 µM | HOP-62 > 100 µM

c1ccc(N/N=C2\NN=C(c3ccccc3)CS2)cc1
inactive: M14 6.73 µM | OVCAR-5 14.7 µM | HCT-116 3.8 µM | SN12C > 10 µM | HL-60 3.58 µM | HCC 2998 4.74 µM | UACC-62 5.81 µM | OVCAR-3 14.9 µM | SF-539 18.1 µM | CAKI-1 2.55 µM | ACHN 4.38 µM | K562 3.34 µM | KM12 13.2 µM | UO-31 12.9 µM | UACC-257 16 µM | IGROV-1 15 µM | HOP-62 22.3 µM
